Laboratory results from patent US7915238B2, “Immunomodulatory compounds and methods of use thereof” (Eisai R & D Management Co., Ltd., priority 1999, dated 2011).
Several values for one entry are separate records, joined by “and”; a condition that tells them apart may be missing. Identical values can stand only once.

B1: GM-CSF: murine GM-CSF, a cytokine used in cancer vaccine trials to boost immune response (protein, UniProt P01587 18-141, looked up)
Granulocyte-macrophage …: APTRSPITVTRPWKHVEAIKEALNLLDDMPVTLNEEVEVVSNEFSFKKLTCVQTRLKIFEQGLRGNFTKLKGALNMTASYYQTYCPPTPETDCETQVTTYADFIDSLKTFLTDIPFECKKPGQK

Columns and labels:
[1] = system: normal mouse splenocytes; assay: Cytokine release from murine splenocytes; format: cell-based, C57BL6 mice; settings: 24 hours culture with test compound
Description: The ability of compounds to stimulate cytokine release from splenocytes can be assessed in a mouse model. Spleen cells harvested from C57BL6 mice are cultured for 24 hours in RPMI 1640 cell culture medium containing 5% FBS, 1 mM sodium pyruvate, 2 mM L-glutamine, 100 U/ml penicillin/streptomycin and 50 μM beta-mercaptoethanol, various concentrations of test compound for 20-24 hours, after which the cell culture supernatant is tested for the presence of cytokines.
Spleen cells harvested from mice were cultured for 24 house with test compound and the supernatant was tested for release of cytokines.

[2] = system: THP-1 cells; assay: TNF-alpha promoter secreted alkaline phosphatase (TNF-PLAP) reporter in THP-1 cells; format: cell-based, human; settings: absence and presence of 10% serum; FIG. 3
Description: Similar results can be obtained when compounds of the invention are tested in a cell-culture model. In this assay, compounds of the invention are tested for their ability to stimulate secretion of alkaline phosphatase from THP-1 cells that have been transfected with the gene for secreted alkaline phosphatase under the control of the TNF-alpha promoter, as described in detail in Goto et al., Molecular Pharmacology 49; 860-873 (1996). In this assay, however, the effects of removing serum^1—a condition that may more-likely mimic a subcutaneous environment—can be evaluated. As shown in FIG. 2 and described in Table 1, results from these assays indicate that compounds of the invention stimulate induction of genes under the control of the TNF-alpha promoter when added to cells in the absence as well as the presence of serum. ^1 This is important to determine if serum components such as lipopolysaccharide binding protein are necessary for drug activity.

[3] = system: mouse macrophage line RAW 264.7; assay: Tolerization to TLR family ligands, TNF-alpha release; format: cell-based; settings: pretreated 24 hours at 0.1 μg/mL
Description: Cells of the mouse macrophage line RAW 264.7 were plated in RPMI 1640 complete culture medium (10% fetal bovine serum, 1 mM sodium pyruvate, 2 mM L-glutamine, 100 U/mL penicillin/streptomycin and 50 μM β-mercaptoethanol). Cells were treated for 24 hours with the TLR4 ligand ER-803022 at 0.1 μg/mL by addition of a concentrated stock solution. Negative control cells were treated with an equivalent volume of PBS. After 24 hours, cells were washed twice in RPMI 1640 complete medium and incubated in medium alone for 3 hours. Cultures were then restimulated with the following synthetic TLR ligands: lipopeptide (S-lipo, a ligand for TLR2) at 0.1 μg/mL, ER-803022 at 0.1 μg/mL, a mouse CpG oligonucleotide of the sequence […] (a ligand of murine TLR9) at 0.5 μg/mL, or PBS. Supernatants were taken at 3 and 4 hours and cytokine levels were determined by ELISA.

[4] = system: EGFRvIII peptide; assay: EGFRvIII peptide-specific antibody titers after immunization (ELISA); format: in vivo, C57/BL6J mice; settings: s.c. with 25 μg peptide-KLH, 804057 3 μg, GM-CSF 5 μg
From the text: To determine whether an adjuvant can enhance the effect of an oncology antigen (i.e., an antigen that can be used to vaccinate a subject individual against a cancer), C57/BL6J mice were immunized subcutaneously with a tumor-associated peptide, LEEKKGNYVVTDHC (SEQ ID NO:2) (derived from a mutant form of EGFR, […]) conjugated to the protein carrier keyhole limpet hemocyanin (KLH), with or without Compound 804057 or murine GM-CSF, a cytokine used in cancer vaccine trials to boost immune response. Compound 804057 was dosed at 3 μg, GM-CSF at 5 μg and the peptide-KLH conjugate at 25 μg per dose. Mice were immunized three times at intervals of three weeks. Serum was prepared from mice two weeks after each immunization and tested for […] peptide-specific antibodies using ELISA on plates coated with EGFRvIII peptide conjugated to bovine serum albumin. The results in Table 3 are presented as titers from individual animals. The titer is defined as the last serum dilution at which a signal at 0.25 OD units above background was observed.

[5] = titer = last serum dilution 0.25 OD above background

Row | Molecule | IL-10 release from splenocytes [1] | interferon-gamma release from splenocytes [1] | stimulation of alkaline phosphatase expression from TNF promoter reporter (TNF-PLAP) [2] | other results
1 | CCCCCCCCCCCC(=O)CC(=O)NC(COCC[C@@H](CCCCCCC)OC(=O)CCCCCCCCCCC)COP(=O)([O-])OCCNC(=O)NCCOP(=O)([O-])OCC(COCC[C@@H](CCCCCCC)OC(=O)CCCCCCCCCCC)NC(=O)CC(=O)CCCCCCCCCCC.[Na+].[Na+] (some centres unmarked) [ER 112066] | stimulation of IL-10 release | stimulation of interferon-gamma release | stimulation of alkaline phosphatase expression | –
2 | CCCCCC/C=C\CCCC(=O)O[C@H](CCCCCCC)CCOCC(COP(=O)([O-])OCCNC(=O)NCCOP(=O)([O-])OCC(COCC[C@@H](CCCCCCC)OC(=O)CCC/C=C\CCCCCC)NC(=O)CC(=O)CCCCCCCCCCC)NC(=O)CC(=O)CCCCCCCCCCC.[Na+].[Na+] (some centres unmarked) [ER 111232] | stimulated | stimulated | stimulation of alkaline phosphatase expression | –
3 | CCCCCCCCCCCCCC(=O)N[C@H](COCC[C@@H](CCCCCCC)OC(=O)CCCCCCCCCCC)COP(=O)([O-])OCCNC(=O)NCCOP(=O)([O-])OC[C@@H](COCC[C@@H](CCCCCCC)OC(=O)CCCCCCCCCCC)NC(=O)CCCCCCCCCCCCC.[Na+].[Na+] [ER 803022] | – | – | – | TNF-alpha release in response to CpG oligonucleotide, a TLR9 ligand ([3]; restimulated with CpG 0.5 μg/mL): diminished release of TNF-alpha; TNF-alpha release upon subsequent exposure to ER803022 (TLR4 ligand) ([3]; restimulated with ER-803022 0.1 μg/mL, vs not pretreated): released less TNF-alpha; TNF-alpha release in response to TLR2 ligand S-lipoprotein ([3]; restimulated with S-lipo 0.1 μg/mL): diminished release of TNF-alpha
4 | CCCCCC/C=C\CCCC(=O)O[C@H](CCCCCCC)CCOCC(COP(=O)([O-])OCCNC(=O)CC(=O)NCCOP(=O)([O-])OCC(COCC[C@@H](CCCCCCC)OC(=O)CCC/C=C\CCCCCC)NC(=O)CC(=O)CCCCCCCCCCC)NC(=O)CC(=O)CCCCCCCCCCC.[Na+].[Na+] (some centres unmarked) [ER 113651] | stimulated | stimulated | – | –
5 | CCCCCC/C=C\CCCC(=O)O[C@H](CCCCCCC)CCOCC(COP(=O)([O-])OCCNC(=O)CCCCCCCCC(=O)NCCOP(=O)([O-])OCC(COCC[C@@H](CCCCCCC)OC(=O)CCC/C=C\CCCCCC)NC(=O)CC(=O)CCCCCCCCCCC)NC(=O)CC(=O)CCCCCCCCCCC.[Na+].[Na+] (some centres unmarked) [ER 111231] | stimulated | stimulated | – | –
6 | B1 | – | – | – | Geometric mean titer, IgG1 [4]: 24000; Geometric mean titer, IgG2a [4]: 3568; Antibody titers to EGFRvIII peptide, IgG1, individual animals [4, 5]: 12000 (3×) and 24000 (2×) and 48000 (3×); Antibody titers to EGFRvIII peptide, IgG2a, individual animals [4, 5]: 3000 (2×) and 6000 (3×) and 24000 and 750 (2×)
